Laboratory results: the supplement of paper PMC13380429

Assays:
Conditions in all cases: 72 h
Calu-3 [1] = test: cell viability relative to DMSO; higher = less toxic
HepG2 [2] = test: as above
Vero E6 [3] = test: as above
Caco-2 [4] = test: as above
U2OS [5] = test: as above
Calu-3 [6] = test: drug sensitivity score (DSS) for viability; higher = more toxic; extreme values may be limits of the assay
HepG2 [7] = test: as above
Vero E6 [8] = test: as above
Caco-2 [9] = test: as above
U2OS [10] = test: as above
Calu-3 [11] = test: relative viability EC50 (midpoint between 100% and the lowest measured viability); higher = less toxic
HepG2 [12] = test: as above
Vero E6 [13] = test: as above
Caco-2 [14] = test: as above
U2OS [15] = test: as above

| Structure (SMILES) | cell viability (Calu-3 [1]; 1 nM) [%] | cell viability (Calu-3 [1]; 10 nM) [%] | cell viability (Calu-3 [1]; 100 nM) [%] | cell viability (Calu-3 [1]; 1000 nM) [%] | cell viability (Calu-3 [1]; 10000 nM) [%] | cell viability (HepG2 [2]; 1 nM) [%] | cell viability (HepG2 [2]; 10 nM) [%] | cell viability (HepG2 [2]; 100 nM) [%] | cell viability (HepG2 [2]; 1000 nM) [%] | cell viability (HepG2 [2]; 10000 nM) [%] | cell viability (Vero E6 [3]; 1 nM) [%] | cell viability (Vero E6 [3]; 10 nM) [%] | cell viability (Vero E6 [3]; 100 nM) [%] | cell viability (Vero E6 [3]; 1000 nM) [%] | cell viability (Vero E6 [3]; 10000 nM) [%] | cell viability (Caco-2 [4]; 1 nM) [%] | cell viability (Caco-2 [4]; 10 nM) [%] | cell viability (Caco-2 [4]; 100 nM) [%] | cell viability (Caco-2 [4]; 1000 nM) [%] | cell viability (Caco-2 [4]; 10000 nM) [%] | cell viability (U2OS [5]; 1 nM) [%] | cell viability (U2OS [5]; 10 nM) [%] | cell viability (U2OS [5]; 100 nM) [%] | cell viability (U2OS [5]; 1000 nM) [%] | cell viability (U2OS [5]; 10000 nM) [%] | drug sensitivity score (Calu-3 [6]) | drug sensitivity score (HepG2 [7]) | drug sensitivity score (Vero E6 [8]) | drug sensitivity score (Caco-2 [9]) | drug sensitivity score (U2OS [10]) | relative viability EC50 (Calu-3 [11]) [µM] | relative viability EC50 (HepG2 [12]) [µM] | relative viability EC50 (Vero E6 [13]) [µM] | relative viability EC50 (Caco-2 [14]) [µM] | relative viability EC50 (U2OS [15]) [µM] |
| --- | --- | --- | --- | --- | --- | --- | --- | --- | --- | --- | --- | --- | --- | --- | --- | --- | --- | --- | --- | --- | --- | --- | --- | --- | --- | --- | --- | --- | --- | --- | --- | --- | --- | --- | --- |
| OCc1ccccc1O [salicyl-alcohol] | 95.5 | 109 | 108 | 94.2 | 96.9 | 104 | 98.2 | 85.7 | 105 | 94.2 | 98.8 | 104 | 95.5 | 105 | 110 | 101 | 97.3 | 111 | 107 | 102 | 103 | 95.4 | 101 | 94.4 | 98.6 | 0 | 0 | 0 | 0 | 0 | > 10 | > 10 | > 10 | > 10 | > 10 |
| CC(C)=CCC/C(C)=C/CC/C(C)=C/CSc1ccccc1C(=O)O [salirasib] | 104 | 99.6 | 101 | 103 | 99.2 | 98.5 | 98.7 | 93.9 | 98.5 | 94.8 | 95.8 | 103 | 97.2 | 97.4 | 97.3 | 93.4 | 97.8 | 98.9 | 96.3 | 92.6 | 102 | 97.3 | 98 | 96.6 | 97.9 | 0 | 0 | 0 | 0 | 0 | > 10 | > 10 | > 10 | > 10 | > 10 |
| O=C(Oc1ccccc1C(=O)O)c1ccccc1O [sasapyrine] | 87.8 | 108 | 100 | 100 | 93 | 93.1 | 86.4 | 100 | 91.7 | 105 | 110 | 99.9 | 102 | 88.3 | 89.8 | 106 | 95.3 | 90.3 | 82.8 | 81.9 | 100 | 98.6 | 101 | 97.2 | 94.9 | 0 | 0 | 0.4 | 2.6 | 0 | > 10 | > 10 | > 10 | > 10 | > 10 |
| CC(NC(=O)c1ccccc1/N=C/c1c(O)ccc2ccccc12)c1ccccc1 (stereo not given) [sirtinol] | 96.5 | 97.6 | 104 | 112 | 104 | 101 | 106 | 90.7 | 96.9 | 100 | 97.1 | 91.2 | 93 | 92.4 | 101 | 93.6 | 97.8 | 101 | 105 | 110 | 96.8 | 102 | 96.1 | 101 | 103 | 0 | 0 | 0 | 0 | 0 | > 10 | > 10 | > 10 | > 10 | > 10 |
| CCCCCCCCCCCCCCCCCC(=O)OC[C@@H](O)[C@H]1OC[C@H](O)[C@H]1O [sorbitan-monostearate] | 101 | 92.9 | 94.1 | 108 | 101 | 93.7 | 89.2 | 98.7 | 102 | 108 | 99.5 | 102 | 97.2 | 100 | 101 | 92.1 | 104 | 87.4 | 100 | 98.7 | 102 | 102 | 101 | 107 | 99.9 | 0 | 0 | 0 | 0 | 0 | > 10 | > 10 | > 10 | > 10 | > 10 |
| O=C1[C@@H]2[C@H]3CC[C@H](C3)[C@@H]2C(=O)N1CCCCN1CCN(c2ncccn2)CC1 [tandospirone] | 113 | 103 | 92 | 86.8 | 99.7 | 107 | 97 | 110 | 104 | 99.7 | 107 | 104 | 98.5 | 96.2 | 101 | 93.6 | 95.5 | 94.1 | 98.2 | 95.4 | 98.3 | 98.6 | 98.5 | 99.8 | 97.7 | 1.3 | 0 | 0 | 0 | 0 | > 10 | > 10 | > 10 | > 10 | > 10 |
| CCOC(=O)c1ccc(C#Cc2ccc3c(c2)C(C)(C)CCS3)nc1 [tazarotene] | 99.5 | 101 | 100 | 87.5 | 91.2 | 108 | 92.8 | 119 | 105 | 110 | 101 | 97.7 | 94.9 | 94.9 | 110 | 91.3 | 96.3 | 96.4 | 86 | 83.8 | 93.7 | 98 | 92.2 | 92.2 | 93.6 | 0.7 | 0 | 0 | 0.7 | 0 | > 10 | > 10 | > 10 | > 10 | > 10 |
| C[C@H](Cn1cnc2c(N)ncnc21)OCP(=O)(O)O [tenofovir] | 98.4 | 101 | 94.7 | 93.3 | 93.8 | 93.9 | 94.6 | 105 | 107 | 115 | 94.4 | 94.4 | 97.2 | 94.5 | 107 | 97.8 | 89.2 | 96.9 | 99.6 | 107 | 101 | 98.6 | 102 | 99.8 | 103 | 0 | 0 | 0 | 0 | 0 | > 10 | > 10 | > 10 | > 10 | > 10 |
| Cc1cc(OI)c(C(C)C)cc1-c1cc(C(C)C)c(OI)cc1C [thymol-iodide] | 91.2 | 97 | 102 | 101 | 105 | 99.5 | 105 | 92.8 | 99.1 | 93.7 | 104 | 102 | 99.7 | 99.5 | 97.7 | 104 | 102 | 103 | 97.7 | 87.9 | 101 | 103 | 103 | 98.2 | 99.6 | 0 | 0 | 0 | 0.2 | 0 | > 10 | > 10 | > 10 | > 10 | > 10 |
| CC(=O)c1ccc2c(c1)[C@H](NC(=O)c1ccc(F)c(Cl)c1)[C@H](O)C(C)(C)O2 [tonabersat] | 95.4 | 100 | 99 | 106 | 111 | 95 | 95.3 | 126 | 97.9 | 90.2 | 109 | 110 | 103 | 100 | 98.6 | 88.2 | 123 | 81.3 | 107 | 86.6 | 100 | 105 | 92.1 | 101 | 101 | 0 | 0 | 0 | 0 | 0 | > 10 | > 10 | > 10 | > 10 | > 10 |
| C(#CCN1CCCC1)CN1CCCC1 [tremorine] | 109 | 104 | 96.3 | 88.3 | 103 | 88.5 | 103 | 100 | 97.8 | 93.6 | 103 | 108 | 98.5 | 104 | 92 | 91.8 | 108 | 87.3 | 97.7 | 83.1 | 94.9 | 101 | 91.5 | 95.3 | 92.7 | 0 | 0 | 0 | 0.3 | 0 | > 10 | > 10 | > 10 | > 10 | > 10 |
| COc1cc(Cc2cnc(N)nc2N)cc(OC)c1OC [trimethoprim] | 103 | 89.6 | 107 | 110 | 113 | 82.4 | 102 | 106 | 89.8 | 97.6 | 99.8 | 91.4 | 100 | 94.4 | 96.4 | 114 | 113 | 119 | 103 | 90.1 | 92.3 | 98.4 | 96 | 99.6 | 105 | 0 | 0 | 0 | 0 | 0 | > 10 | > 10 | > 10 | > 10 | > 10 |
| CNCc1cc(-c2ccccc2F)n(S(=O)(=O)c2cccnc2)c1 [vonoprazan] | 99.8 | 96.7 | 94.9 | 96.6 | 105 | 101 | 93.6 | 100 | 94.3 | 107 | 103 | 99.4 | 97.9 | 99.7 | 98.9 | 97.5 | 100 | 102 | 100 | 96.4 | 95.4 | 100 | 98.1 | 102 | 94.4 | 0 | 0 | 0 | 0 | 0 | > 10 | > 10 | > 10 | > 10 | > 10 |
| COc1cc(-c2ccc(=O)[nH]n2)ccc1OC(F)F [zardaverine] | 108 | 95.9 | 89.5 | 92.4 | 89.4 | 93.8 | 110 | 95.7 | 106 | 99.7 | 95.5 | 101 | 94.5 | 93 | 92.6 | 87.1 | 90 | 96.9 | 96.3 | 104 | 97.8 | 95.8 | 103 | 98 | 99.2 | 0.3 | 0 | 0 | 0 | 0 | > 10 | > 10 | > 10 | > 10 | > 10 |
